{"source": "ChEMBL document CHEMBL4339189", "about": "“Dissymmetric pyridyl-substituted 3,5-bis(arylidene)-4-piperidones as anti-hepatoma agents by inhibiting NF-κB pathway activation” (Eur J Med Chem, 2019)", "key": {"SMMC-7721 [1]": {"system": "SMMC-7721", "experiment": "Cytotoxicity against human SMMC7721 cells assessed as reduction in cell viability incubated for 24 hrs by MTT assay", "type": "functional, cell-based"}, "[2]": {"experiment": "Cytotoxicity against human HHL5 cells assessed as reduction in cell viability incubated for 24 hrs by MTT assay", "type": "cell-based", "conditions": "HHL-5, 24 h"}, "[3]": {"target": "Transcription factor p65 (Mus musculus) (UniProt Q04207)", "sequence (Q04207 whole entry)": "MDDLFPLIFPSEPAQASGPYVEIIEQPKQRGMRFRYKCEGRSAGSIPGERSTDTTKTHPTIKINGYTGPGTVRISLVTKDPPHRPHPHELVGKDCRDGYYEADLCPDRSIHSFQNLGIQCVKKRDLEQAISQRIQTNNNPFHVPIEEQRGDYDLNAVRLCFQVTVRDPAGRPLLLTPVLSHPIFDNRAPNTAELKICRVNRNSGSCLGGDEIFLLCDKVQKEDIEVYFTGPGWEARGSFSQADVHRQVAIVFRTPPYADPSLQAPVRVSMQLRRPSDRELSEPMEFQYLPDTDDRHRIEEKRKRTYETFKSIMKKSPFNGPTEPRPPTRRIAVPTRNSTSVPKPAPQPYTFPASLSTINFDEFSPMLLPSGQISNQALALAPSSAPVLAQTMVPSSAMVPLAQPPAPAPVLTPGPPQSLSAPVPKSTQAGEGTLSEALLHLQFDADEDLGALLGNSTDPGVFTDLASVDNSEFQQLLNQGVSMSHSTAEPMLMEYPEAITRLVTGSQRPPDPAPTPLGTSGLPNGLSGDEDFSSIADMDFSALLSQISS", "experiment": "Inhibition of LPS-induced NFkappaB p65 nuclear translocation in mouse RAW264.7 cells at 4 uM incubated for 2 hrs after pre-incubation with LPS for 15 mins by DAPI staining-based immunofluorescence assay", "type": "cell-based"}, "[4]": {"target": "Transcription factor p65 (Mus musculus) (UniProt Q04207)", "experiment": "Inhibition of NFkappaB activation in mouse RAW264.7 cells assessed as reduction in LPS-induced p65 phosphorylation at 1 to 4 uM incubated for 2 hrs after pre-incubation with LPS for 15 mins by Western blot analysis", "type": "cell-based"}, "HepG2 [5]": {"system": "HepG2", "experiment": "Induction of apoptosis in human HepG2 cells xenografted in Balb/c nude mouse assessed as reduction in Bcl-2 protein expression at 10 mg/kg, ip administered every 2 days for 20 days and measured every 2 days by immunohistochemistry", "type": "functional, organism-based"}, "[6]": {"target": "T1, NF-kappa-B inhibitor alpha (Mus musculus) (UniProt Q9Z1E3)", "T1 sequence (whole entry)": "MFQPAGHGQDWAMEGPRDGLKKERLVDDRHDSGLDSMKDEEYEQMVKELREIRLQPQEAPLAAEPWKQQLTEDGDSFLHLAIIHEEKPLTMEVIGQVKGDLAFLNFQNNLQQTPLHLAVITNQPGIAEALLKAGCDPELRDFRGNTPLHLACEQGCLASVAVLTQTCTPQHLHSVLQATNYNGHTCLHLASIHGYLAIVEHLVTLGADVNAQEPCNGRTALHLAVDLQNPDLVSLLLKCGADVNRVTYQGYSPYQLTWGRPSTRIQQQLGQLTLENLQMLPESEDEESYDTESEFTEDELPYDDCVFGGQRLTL", "experiment": "Inhibition of NFkappaB signalling activation in mouse RAW264.7 cells assessed as reduction in LPS-induced IkBalpha phosphorylation at 1 to 4 uM incubated for 2 hrs after pre-incubation with LPS for 15 mins by Western blot analysis", "type": "cell-based"}, "RAW264.7 [7]": {"system": "RAW264.7", "experiment": "Antiinflammatory activity in mouse RAW264.7 cells assessed as inhibition of LPS-stimulated TNF-alpha production at 6.0 uM preincubated for 2 hrs followed by LPS stimulaton measured after 22 hrs by ELISA relative to control", "type": "functional"}, "Mus musculus [8]": {"system": "Mus musculus", "experiment": "Antiinflammatory activity in human HepG2 cells xenografted Balb/c nude mouse assessed as reduction in TNFalpha protein expression at 0.1 mg/kg, ip administered every 2 days for 20 days and measured every 2 days by immunohistochemistry", "type": "functional, organism-based"}, "HepG2 [9]": {"system": "HepG2", "experiment": "Antitumor activity against human HepG2 cells xenografted in Balb/c nude mouse assessed as effect on tumor volume level at 0.1 mg/kg, ip administered every 2 days for 20 days and measured every 2 days", "type": "functional, organism-based"}, "SMMC-7721 [10]": {"system": "SMMC-7721", "experiment": "Induction of apoptosis in human SMMC7721 cells assessed as increase in apoptotic cell population at 4.0 uM incubated for 24 hrs by Annexin V-FITC/propidium iodide staining based flow cytometry", "type": "functional"}, "HepG2 [11]": {"system": "HepG2", "experiment": "Induction of apoptosis in human HepG2 cells xenografted in Balb/c nude mouse assessed as reduction in Bcl-2 protein expression at 1 mg/kg, ip administered every 2 days for 20 days and measured every 2 days by immunohistochemistry", "type": "functional, organism-based"}, "SMMC-7721 [12]": {"system": "SMMC-7721", "experiment": "Induction of apoptosis in human SMMC7721 cells assessed as increase in apoptotic cell population at 2.0 uM incubated for 24 hrs by Annexin V-FITC/propidium iodide staining based flow cytometry relative to control", "type": "functional"}, "[13]": {"target": "T1, NF-kappa-B inhibitor alpha (Mus musculus)", "experiment": "Inhibition of NFkappaB signalling activation in mouse RAW264.7 cells assessed as reduction in […] IkBalpha phosphorylation at 1 to 4 uM incubated for 2 hrs after pre-incubation with LPS for 15 mins by Western blot analysis", "type": "cell-based"}, "HepG2 [14]": {"system": "HepG2", "experiment": "Induction of apoptosis in human HepG2 cells assessed as increase in Bax expression up to 4 uM after 24 hrs by Western blot analysis", "type": "functional, cell-based"}, "Mus musculus [15]": {"system": "Mus musculus", "experiment": "Antiinflammatory activity in human HepG2 cells xenografted Balb/c nude mouse assessed as reduction in TNFalpha protein expression at 10 mg/kg, ip administered every 2 days for 20 days and measured every 2 days by immunohistochemistry", "type": "functional, organism-based"}, "[16]": {"target": "Transcription factor p65 (Mus musculus) (UniProt Q04207)", "experiment": "Inhibition of NFkappaB activation in mouse RAW264.7 cells assessed as reduction in TNFalpha-induced p65 phosphorylation at 1 to 4 uM incubated for 2 hrs after pre-incubation with LPS for 15 mins by Western blot analysis", "type": "cell-based"}, "QGY-7703 [17]": {"system": "QGY-7703", "experiment": "Cytotoxicity against human QGY7703 cells assessed as reduction in cell viability incubated for 24 hrs by MTT assay", "type": "functional, cell-based"}, "QGY-7703 [18]": {"system": "QGY-7703", "experiment": "Induction of apoptosis in human QGY7703 cells assessed as increase in apoptotic cell population at 4.0 uM incubated for 24 hrs by Annexin V-FITC/propidium iodide staining based flow cytometry", "type": "functional"}, "HepG2 [19]": {"system": "HepG2", "experiment": "Induction of apoptosis in human HepG2 cells assessed as increase in apoptotic cell population at 2.0 uM incubated for 24 hrs by Annexin V-FITC/propidium iodide staining based flow cytometry relative to control", "type": "functional"}, "HepG2 [20]": {"system": "HepG2", "experiment": "Induction of apoptosis in human HepG2 cells xenografted in Balb/c nude mouse assessed as reduction in Bcl-2 protein expression at 0.1 mg/kg, ip administered every 2 days for 20 days and measured every 2 days by immunohistochemistry", "type": "functional, organism-based"}, "HepG2 [21]": {"system": "HepG2", "experiment": "Induction of apoptosis in human HepG2 cells assessed as increase in apoptotic cell population at 4.0 uM incubated for 24 hrs by Annexin V-FITC/propidium iodide staining based flow cytometry relative to control", "type": "functional"}, "QGY-7703 [22]": {"system": "QGY-7703", "experiment": "Induction of apoptosis in human QGY7703 cells assessed as increase in apoptotic cell population at 2.0 uM incubated for 24 hrs by Annexin V-FITC/propidium iodide staining based flow cytometry relative to control", "type": "functional"}, "RAW264.7 [23]": {"system": "RAW264.7", "experiment": "Cytotoxicity against mouse RAW264.7 cells assessed as reduction in cell viability at 6.0 uM incubated for 24 hrs by MTT assay", "type": "cell-based", "conditions": "raw264.7, 24 h"}, "HepG2 [24]": {"system": "HepG2", "experiment": "Induction of apoptosis in human HepG2 cells assessed as increase in apoptotic cell population at 4.0 uM incubated for 24 hrs by Annexin V-FITC/propidium iodide staining based flow cytometry", "type": "functional"}, "HepG2 [25]": {"system": "HepG2", "experiment": "Cytotoxicity against human HepG2 cells assessed as reduction in cell viability incubated for 24 hrs by MTT assay", "type": "functional, cell-based"}, "[26]": {"experiment": "Toxicity in Balb/c nude mouse xenografted with human HepG2 cells assessed as increase in body weight at 0.1 to 10 mg/kg, ip administered every 2 days for 20 days and measured every 2 days", "type": "organism-based", "conditions": "in vivo"}, "HepG2 [27]": {"system": "HepG2", "experiment": "Antitumor activity against human HepG2 cells xenografted in Balb/c nude mouse assessed as induction of wrinkled abnormalities on cell morphology at 10 mg/kg, ip administered every 2 days for 20 days and measured every 2 days by H and E staining based assay", "type": "functional, organism-based"}, "HepG2 [28]": {"system": "HepG2", "experiment": "Antitumor activity against human HepG2 cells xenografted in Balb/c nude mouse assessed as induction of incomplete cells at 10 mg/kg, ip administered every 2 days for 20 days and measured every 2 days by H and E staining based assay", "type": "functional, organism-based"}}, "note": "Activity calls are given as the source filed them. The rule behind the calls is not given here.", "data": [{"smiles": "O=C1/C(=C/c2cccnc2)CN(S(=O)(=O)c2ccc(C(F)(F)F)cc2)C/C1=C\\c1ccccc1C(F)(F)F", "values": [{"measurement": "Activity", "setting": "SMMC-7721 [1]", "result": "Dose-dependent effect"}, {"measurement": "IC50", "setting": "SMMC-7721 [1]; SMMC-7721, 24 h", "result": 1.73, "unit": "µM"}, {"measurement": "IC50", "setting": "[2]", "result": 15.8, "unit": "µM"}, {"measurement": "inhibition", "setting": "[3]", "result": "Active"}, {"measurement": "inhibition", "setting": "[4]", "result": "Dose-dependent effect"}, {"measurement": "Activity", "setting": "HepG2 [5]", "result": "Active"}, {"measurement": "inhibition", "setting": "[6]", "result": "Dose-dependent effect"}, {"measurement": "inhibition at 6 µM", "setting": "RAW264.7 [7]", "result": "≤ 15", "unit": "%"}, {"measurement": "Activity", "setting": "Mus musculus [8]", "result": "inactive"}, {"measurement": "Activity", "setting": "HepG2 [9]", "result": "inactive"}, {"measurement": "Activity", "setting": "SMMC-7721 [10]", "result": "Dose-dependent effect"}, {"measurement": "Activity", "setting": "HepG2 [11]", "result": "Active"}, {"measurement": "Activity", "setting": "SMMC-7721 [12]", "result": 40, "unit": "%"}, {"measurement": "inhibition", "setting": "[13]", "result": "Dose-dependent effect"}, {"measurement": "Activity", "setting": "HepG2 [14]", "result": "Dose-dependent effect"}, {"measurement": "Activity", "setting": "Mus musculus [15]", "result": "Active"}, {"measurement": "inhibition", "setting": "[16]", "result": "Dose-dependent effect"}, {"measurement": "Activity", "setting": "QGY-7703 [17]", "result": "Dose-dependent effect"}, {"measurement": "IC50", "setting": "QGY-7703 [17]; QGY-7703, 24 h", "result": 1.5, "unit": "µM"}, {"measurement": "Activity", "setting": "QGY-7703 [18]", "result": "Dose-dependent effect"}, {"measurement": "Activity", "setting": "HepG2 [19]", "result": 40, "unit": "%"}, {"measurement": "Activity", "setting": "HepG2 [20]", "result": "inactive"}, {"measurement": "Activity", "setting": "HepG2 [21]", "result": ">70", "unit": "%"}, {"measurement": "Activity", "setting": "QGY-7703 [22]", "result": 58, "unit": "%"}, {"measurement": "Activity", "setting": "RAW264.7 [23]", "result": "Non-Toxic"}, {"measurement": "Activity", "setting": "HepG2 [24]", "result": "Dose-dependent effect"}, {"measurement": "Activity", "setting": "HepG2 [25]", "result": "Dose-dependent effect"}, {"measurement": "IC50", "setting": "HepG2 [25]; HepG2, 24 h", "result": 1.71, "unit": "µM"}, {"measurement": "Activity", "setting": "[26]", "result": "Non-Toxic"}, {"measurement": "Activity", "setting": "HepG2 [27]", "result": "Active"}, {"measurement": "Activity", "setting": "HepG2 [28]", "result": "Active"}]}]}
